Data on 6 molecules can be found in patent US20240101592A1, “COMPOSITIONS AND METHODS FOR TREATING CNS DISORDERS” (Sage Therapeutics, Inc., priority 2020, published 2024).

Each structure is given as a SMILES string. Some results are limits rather than exact numbers.

The assay addresses GABAA receptor ([35S]-TBPS binding, rat brain cortical membranes). As to the kind of experiment: Steroid inhibition of [35S]-TBPS binding. The conditions noted are these: 3 nM [35S]-TBPS, in the presence of 5 mM GABA, 90 min at room temp. On the procedure: Steroid Inhibition of TBPS Binding
[^35S]-t-Butylbicyclophosphorothionate (TBPS) binding assays using rat brain cortical membranes in the presence of 5 mM GABA has been described (Gee et al, J. Pharmacol. Exp. Ther. 1987, 241, 346-353; Hawkinson et al, Mol. Pharmacol. 1994, 46, 977-985; Lewin, A. H et al., Mol. Pharmacol. 1989, 35, 189-194).
Briefly, cortices are rapidly removed following decapitation of carbon dioxide-anesthetized Sprague-Dawley rats (200-250 g). The cortices are homogenized in 10 volumes of ice-cold 0.32 M sucrose using a glass/teflon homogenizer and centrifuged at 1500×g for 10 min at 4° C. The resultant supernatants are centrifuged at 10,000×g for 20 min at 4° C. to obtain the P2 pellets. The P2 pellets are resuspended in 200 mM NaCl/50 mM Na—K phosphate pH 7.4 buffer and centrifuged at 10,000×g for 10 min at 4° C. This washing procedure is repeated twice and the pellets are resuspended in 10 volumes of buffer. Aliquots ([…]) of the membrane suspensions are incubated with 3 nM [^35S]-TBPS and […] aliquots of test drug dissolved in dimethyl sulfoxide (DMSO) (final 0.5%) in the presence of 5 mM GABA. The incubation is brought to a final volume of 1.0 mL with buffer. Nonspecific binding is determined in the presence of […] and ranged from 15 to 25%. Following a 90 min incubation at room temp, the assays are terminated by filtration through glass fiber filters (Schleicher and Schuell No. 32) using a cell harvester (Brandel) and rinsed three times with ice-cold buffer. Filter bound radioactivity is measured by liquid scintillation spectrometry. Non-linear curve fitting of the overall data for each drug averaged for each concentration is done using Prism (GraphPad). […] The concentration of test compound producing 50% inhibition (IC50) of specific binding and the maximal extent of inhibition (Imax) are determined for the individual experiments with the same model used for the overall data and then the means±SEM.s of the individual experiments are calculated.
Various compounds are or can be screened to determine their potential as modulators of [^35S]-TBPS binding in vitro. These assays are or can be performed in accordance with the above.
The term IC50 denotes the midpoint of a concentration-inhibition curve. `Cc1nnn(C[C@@H]2C[C@H]2[C@H]2CC[C@H]3[C@@H]4CC[C@@H]5C[C@](C)(O)CC[C@@H]5[C@H]4CC[C@]23C)n1` [Compound No. 28, (3R,5R,8R,9R,10S,13S,14S,17R)-3,13-dimethyl-17-((1S,2R)-2-((5-methyl-2H-tetrazol-2-yl)methyl)cyclopropyl)hexadecahydro-1H-cyclopenta[a]phenanthren-3-ol]: the IC50 was less than 100 nM. Take `CC(=O)[C@H]1[C@H]2C[C@H]2[C@H]2[C@@H]3CC[C@@H]4C[C@](C)(O)CC[C@@H]4[C@H]3CC[C@@]21C` [Compound No. 9, 1-((2R,4aS,4bR,6aS,7S,7aS,8aR,8bR,8cR,10aR)-2-hydroxy-2,6a-dimethyloctadecahydrocyclopropa[4,5]cyclopenta[1,2-a]phenanthren-7-yl)ethanone]: the half-maximal inhibitory concentration (IC50) is less than 100 nM. The figure for `CC(Cn1cc(C#N)cn1)[C@H]1[C@H]2C[C@H]2[C@H]2[C@@H]3CC[C@@H]4C[C@](C)(O)CC[C@@H]4[C@H]3CC[C@@]21C` (single isomer, unassigned) [Compound No. 11] is less than 100 nM; for `C[C@@]1(O)CC[C@H]2[C@H](CC[C@@H]3[C@@H]2CC[C@]2(C)[C@@H]([C@H]4C[C@@H]4Cn4cc(C#N)cn4)CC[C@@H]32)C1` [Compound No. 24, 1-(((1S,2R)-2-((3R,5R,8R,9R,10S,13S,14S,17R)-3-hydroxy-3,13-dimethylhexadecahydro-1H-cyclopenta[a]phenanthren-17-yl)cyclopropyl)methyl)-1H-pyrazole-4-carbonitrile] it is less than 100 nM. Take `CCC[C@@]1(O)CC[C@@]2(C)[C@@H](CC[C@H]3[C@@H]4[C@@H]5C[C@@H]5[C@H]([C@@](C)(O)Cn5cc(C#N)cn5)[C@@]4(C)CC[C@@H]32)C1` [Compound No. 14, 1-((R)-2-hydroxy-2-((2R,4aS,4bS,6aS,7S,7aS,8aR,8bS,8cR,10aS)-2-hydroxy-4a,6a-dimethyl-2-propyloctadecahydrocyclopropa[4,5]cyclopenta[1,2-a]phenanthren-7-yl)propyl)-1H-pyrazole-4-carbonitrile]: the IC50 is greater than 1000 nM. The same measure for `COC[C@@]1(O)CC[C@H]2[C@@H](CC[C@@H]3[C@@H]2CC[C@@]2(C)[C@H]3[C@@H]3C[C@@H]3[C@@H]2C(C)=O)C1` [Compound No. 16, 1-((2R,4aS,4bR,6aS,7S,7aS,8aR,8bR,8cR,10aS)-2-hydroxy-2-(methoxymethyl)-6a-methyloctadecahydrocyclopropa[4,5]cyclopenta[1,2-a]phenanthren-7-yl)ethanone]: less than 100 nM.
